For this test, the target named is T1, growth hormone secretagogue receptor (Homo sapiens, UniProt Q92847).
T1 construct: expressed in transfected cells; host or cells: HEK 293 (EBNA) cells, membrane preparation
Put plainly: Saturation binding assay using T-MK0677 on transfected HEK 293 (EBNA) cell membranes. The procedure:
Human Embryonic Kidney HEK 293 (EBNA) cells were grown in suspension and transfected according to the method previously described (Schlaeger and Christensen, Cytotechnology, 30, 71-83, 1999). The cells were centrifugated for 10 min at 500 rpm, washed once with PBS-0.7 mM EDTA/(4° C.) and resuspended in PBS-EDTA-PI (with Protease inhibitor cocktail), at 2 ml/g of cells. Cells were broken with Ultra Turax level green 3×15″ with 30″ breaks on ice. To remove debris the suspension was centrifugated in a Sorvall SS34 rotor for 20 min at 2,000 rpm. The supernatant was collected and centrifugated for 40 min at 20,000 rpm. The pellet was resuspended in PBS-EDTA. Receptor density was verified with saturation binding assay using T-MK 0677 to be 4.9 pmol/mg protein.
The membrane was resuspended in Binding buffer (25 mM Hepes, pH 7.4, 25 mM MgCl2, 1 mM CaCl2, 0.1% BSA, 0.03% Bacitracine (protease inhibitor)) to 0.1 to 2 μg/well. […]
A filter plate (Packard GF/B unifilter plate) was treated with 50 μL/well 0.5% polyethyleneimine (PEI) in PBS for 15 min. […] Then 50 μL of Microscint 0 were added per well and the T decay counted in a topcount from Packard Instruments.

T1 sequence (Q92847 whole entry): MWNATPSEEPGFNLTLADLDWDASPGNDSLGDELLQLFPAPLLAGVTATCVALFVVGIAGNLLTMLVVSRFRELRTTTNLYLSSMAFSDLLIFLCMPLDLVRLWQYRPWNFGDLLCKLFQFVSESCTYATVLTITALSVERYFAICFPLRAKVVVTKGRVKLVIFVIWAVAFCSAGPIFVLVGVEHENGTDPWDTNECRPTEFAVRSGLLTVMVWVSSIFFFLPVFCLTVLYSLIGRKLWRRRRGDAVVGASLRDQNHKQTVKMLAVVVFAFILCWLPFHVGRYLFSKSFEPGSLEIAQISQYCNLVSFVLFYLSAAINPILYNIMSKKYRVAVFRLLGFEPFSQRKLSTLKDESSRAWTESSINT

“tris-tritiated-2-amino-N-[(1R)-2-[1,2-dihydro-1-(methylsulfonyl)spiro[3H-indole-3,4′-piperidin]-1′-yl]-2-oxo-1-[(phenylmethoxy)methyl]ethyl]-2-methyl-, monomethanesulfonate [T-MK 0677]”: the Receptor density is recorded as 4.9 pmol/mg protein.

Values taken from US20060204436A1, “Tritiated growth hormone secretagogue mk-0677” (priority 2003, published 2006).
